Tests used:
[1] = system: patients with fibromyalgia; assay: Phase 2a study: daily fibromyalgia sleep diary (FMSD); format: in vivo, human; conditions: for Degree of being rested when waking up for the day, change from baseline, LS Mean (SE) / Degree of deep sleep, change from baseline, LS Mean (SE) / Degree of having enough sleep during the previous night, change from baseline, LS Mean (SE) / Difficulty getting comfortable, change from baseline, LS Mean (SE) / Difficulty staying asleep, change from baseline, LS Mean (SE) / Difficulty with beginning the day, change from baseline, LS Mean (SE) / Difficulty with falling asleep, change from baseline, LS Mean (SE) / Restlessness of sleep, change from baseline, LS Mean (SE): FAS, 15 mg
Text: In some embodiments, the clinical score is a score for one or more FMSD (fibromyalgia sleep diary) items. The FMSD (Kleinman et al., 2014) is a validated 8-item patient-reported outcome that assesses sleep disturbances specific to patients with fibromyalgia across the domains of falling asleep, staying asleep, and sufficient sleep (Kleinman et al., 2014). Each day upon waking, patients rated their sleep quality over the previous night on an 11-point numerical integer rating scale (NRS). Each item is rated on an 11-point NRS, ranging from 0, which corresponds to “not at all”, to 10, which corresponds to “extremely.” FMSD items include: • difficulty with falling asleep (improvement shown as a decrease in measurement); • restlessness of sleep (improvement shown as a decrease in measurement); • difficulty getting comfortable (improvement shown as a decrease in measurement); • difficulty staying asleep (improvement shown as a decrease in measurement); • degree of deep sleep (improvement shown as an increase in measurement); • degree of being rested when waking up for the day (improvement shown as an increase in measurement); • difficulty with beginning the day (improvement shown as a decrease in measurement); and • degree of having enough sleep during the previous night (improvement shown as an increase in measurement). A phase 2a, randomized, double-blind, placebo-controlled, parallel group study was conducted at 24 sites in the United States to assess the analgesic efficacy and safety of the compound of Formula (I) in patients with fibromyalgia. The study consisted of the following: a screening period of up to 42 days, which included a washout period and a 7-day baseline diary run-in; a 57-day double-blind randomized treatment period with site visits at Days 1, 15, 29, and 57; and a 4-week follow-up period consisting of a clinic visit after 2 weeks and a phone call after 4 weeks. The study was carried out in accordance with the Declaration of Helsinki and approved by the relevant Institutional Review Boards. All participants provided written informed consent prior to the initiation of any study procedures. Male and female patients aged 18 to 80 years were included in the trial if they met the American College of Rheumatology (ACR) 1990 and 2010 fibromyalgia diagnostic criteria at screening (Wolfe et al., 1990; Wolfe et al., 2010b). The core diagnostic criteria for fibromyalgia are defined by the 1990 criteria (Wolfe et al., 1990), and while ACR has published newer criteria, the 1990 version is still commonly utilized in clinical trials. To meet ACR 1990 criteria, patients must have had widespread pain for at least 3 months, defined as the presence of pain on the right and left sides of the body, pain above and below the waist, and pain in the axial skeleton (cervical spine, anterior chest, thoracic spine, or low back) (Wolfe et al., 1990). They must also have had pain in at least 11 of 18 tender point sites on digital palpation performed with an approximate force of 4 kg. To meet the ACR 2010 criteria, patients needed to have a widespread pain index (WPI) score of ≥7 and a symptom severity (SS) scale score ≥5, or a WPI score 3-6 and an SS scale score ≥9 (Wolfe et al., 2010b). Symptoms must have been present at a similar level for at least 3 months and patients must have been free of any other disorder that could have explained the pain. […] Eligible patients were randomized 1:1 using Interactive Response Technology to receive oral Compound of Formula (I) 15 mg (three capsules of 5 mg) or matching placebo capsules, each given once daily in the morning, with or without food, for 8 weeks. Sleep disturbance was assessed as an exploratory endpoint using change from baseline to each respective week (Weeks 1-8) and from baseline to EOT in daily fibromyalgia sleep diary (FMSD) responses (Kleinman et al., 2014). […]

[2] = Nonclinical studies: toxicological profile

For Cc1sc2cc(Cl)ccc2c1-c1ccc(N2CCO[C@H](CNC3CCC3)C2)c(C(=O)O)c1 [Compound of Formula (I)], the “Difficulty with falling asleep, Treatment Difference (SE) (Compound of Formula (I) - placebo)” value ([1]; EOT (LOCF), ANCOVA, 1-sided p 0.008) was −0.61 (0.25), the “Restlessness of sleep, Treatment Difference (SE) (Compound of Formula (I) - placebo)” value ([1]; EOT (LOCF), ANCOVA, 1-sided p 0.009) was −0.56 (0.23) and the “Difficulty with beginning the day, Treatment Difference (SE) (Compound of Formula (I) - placebo)” value ([1]; EOT (LOCF), ANCOVA, 1-sided p 0.044) was −0.42 (0.25). For the same compound, the “Difficulty getting comfortable, Treatment Difference (SE) (Compound of Formula (I) - placebo)” value ([1]; EOT (LOCF), ANCOVA, 1-sided p 0.054) was −0.35 (0.22), the “Degree of having enough sleep during the previous night, Treatment Difference (SE) (Compound of Formula (I) - placebo)” value ([1]; EOT (LOCF), ANCOVA, 1-sided p 0.100) was 0.32 (0.25) and the “Difficulty staying asleep, Treatment Difference (SE) (Compound of Formula (I) - placebo)” value ([1]; EOT (LOCF), ANCOVA, 1-sided p 0.158) was −0.22 (0.22). For the same compound, the “Degree of deep sleep, Treatment Difference (SE) (Compound of Formula (I) - placebo)” value ([1]; EOT (LOCF), ANCOVA, 1-sided p 0.240) was 0.16 (0.22), the “Degree of being rested when waking up for the day, Treatment Difference (SE) (Compound of Formula (I) - placebo)” value ([1]; EOT (LOCF), ANCOVA, 1-sided p 0.337) was 0.10 (0.24) and the “Degree of being rested when waking up for the day, change from baseline, LS Mean (SE)” value ([1]; EOT (LOCF), ANCOVA) was 0.78 (0.17). For the same compound, the “Degree of deep sleep, change from baseline, LS Mean (SE)” value ([1]; EOT (LOCF), ANCOVA) was 0.60 (0.16), the “Degree of having enough sleep during the previous night, change from baseline, LS Mean (SE)” value ([1]; EOT (LOCF), ANCOVA) was 1.09 (0.18) and the “Difficulty getting comfortable, change from baseline, LS Mean (SE)” value ([1]; EOT (LOCF), ANCOVA) was −1.27 (0.16). For the same compound, the “Difficulty staying asleep, change from baseline, LS Mean (SE)” value ([1]; EOT (LOCF), ANCOVA) was −1.08 (0.16), the “Difficulty with beginning the day, change from baseline, LS Mean (SE)” value ([1]; EOT (LOCF), ANCOVA) was −0.91 (0.18) and the “Difficulty with falling asleep, change from baseline, LS Mean (SE)” value ([1]; EOT (LOCF), ANCOVA) was −1.41 (0.18). The “Restlessness of sleep, change from baseline, LS Mean (SE)” value ([1]; EOT (LOCF), ANCOVA) was −1.50 (0.17), the “Difficulty with falling asleep, Treatment Difference (SE) (Compound of Formula (I) - placebo)” value ([1]; Week 8, MMRM, 1-sided p 0.018) was −0.56 (0.26) and the “Restlessness of sleep, Treatment Difference (SE) (Compound of Formula (I) - placebo)” value ([1]; Week 8, MMRM, 1-sided p 0.033) was −0.48 (0.26). The “Difficulty with beginning the day, Treatment Difference (SE) (Compound of Formula (I) - placebo)” value ([1]; Week 8, MMRM, 1-sided p 0.070) was −0.39 (0.26), the “Degree of having enough sleep during the previous night, Treatment Difference (SE) (Compound of Formula (I) - placebo)” value ([1]; Week 8, MMRM, 1-sided p 0.131) was 0.30 (0.27) and the “Difficulty getting comfortable, Treatment Difference (SE) (Compound of Formula (I) - placebo)” value ([1]; Week 8, MMRM, 1-sided p 0.167) was −0.23 (0.23). The “Difficulty staying asleep, Treatment Difference (SE) (Compound of Formula (I) - placebo)” value ([1]; Week 8, MMRM, 1-sided p 0.275) was −0.14 (0.24), the “Degree of deep sleep, Treatment Difference (SE) (Compound of Formula (I) - placebo)” value ([1]; Week 8, MMRM, 1-sided p 0.331) was 0.11 (0.24) and the “Degree of being rested when waking up for the day, Treatment Difference (SE) (Compound of Formula (I) - placebo)” value ([1]; Week 8, MMRM, 1-sided p 0.432) was 0.04 (0.25). For the same compound, the “Degree of being rested when waking up for the day, change from baseline, LS Mean (SE)” value ([1]; Week 8, MMRM) was 0.74 (0.18), the “Degree of deep sleep, change from baseline, LS Mean (SE)” value ([1]; Week 8, MMRM) was 0.55 (0.17) and the “Degree of having enough sleep during the previous night, change from baseline, LS Mean (SE)” value ([1]; Week 8, MMRM) was 1.10 (0.19). The “Difficulty getting comfortable, change from baseline, LS Mean (SE)” value ([1]; Week 8, MMRM) was −1.24 (0.17), the “Difficulty staying asleep, change from baseline, LS Mean (SE)” value ([1]; Week 8, MMRM) was −1.09 (0.17) and the “Difficulty with beginning the day, change from baseline, LS Mean (SE)” value ([1]; Week 8, MMRM) was −0.89 (0.19). For the same compound, the “Difficulty with falling asleep, change from baseline, LS Mean (SE)” value ([1]; Week 8, MMRM) was −1.46 (0.19), the “Restlessness of sleep, change from baseline, LS Mean (SE)” value ([1]; Week 8, MMRM) was −1.53 (0.19) and the “FMSD difficulty with falling asleep versus placebo” value ([1]; beginning at Week 2, P=0.032) was “Statistically significant improvements”. The “FMSD difficulty getting comfortable versus placebo” value ([1]; beginning at Week 3, P=0.007) was “Statistically significant improvements”, the “FMSD difficulty staying asleep versus placebo” value ([1]; beginning at Week 3, P=0.013) was “Statistically significant improvements” and the “FMSD restlessness of sleep versus placebo” value ([1]; beginning at Week 3, P=0.013) was “Statistically significant improvements”. The “FMSD degree of deep sleep versus placebo” value ([1]; beginning at Week 6, P=0.035) was “Statistically significant improvements”, the “FMSD difficulty with beginning the day versus placebo” value ([1]; beginning at Week 6, P=0.040) was “Statistically significant improvements” and the toxicological profile [2] was “acceptable toxicological profile”.
